Source: US20230263822A1, “MODULATION OF FACTOR 11 EXPRESSION” (Ionis Pharmaceuticals, Inc., priority 2008, published 2023)
Strand notation (5' to 3'): a small letter for the sugar, then the base; units joined by * are phosphorothioate-linked, units joined directly phosphodiester-linked; [ ] holds rarer units or linkages, { } end groups; capitals alone tell only the bases. e = 2'-O-(2-methoxyethyl) (MOE); [5mC] = 5-methylcytosine; d = 2'-deoxy (DNA)

Legend:
[1] = Kidney function, urine protein to creatinine ratio in cynomolgus monkeys (Example 45); assay type: in vivo
Description: (§1) Groups, each consisting of two male and three female monkeys, were injected subcutaneously with ISIS 416838, ISIS 416850, ISIS 416858, ISIS 416864, or ISIS 417002 in escalating doses. Antisense oligonucleotide was administered to the monkeys at 5 mg/kg three times per a week for week 1; 5 mg/kg twice per week for weeks 2 and 3; 10 mg/kg three times per week for week 4; 10 mg/kg twice per week for weeks 5 and 6; 25 mg/kg three times per week for week 7; and 25 mg/kg twice per week for weeks 8, 9, 10, 11, and 12. One control group, consisting of two male and three female monkeys, was injected subcutaneously with PBS according to the same dosing regimen. An additional experimental group, consisting of two male and three female monkeys, was injected subcutaneously with ISIS 416850 in a chronic, lower dose regimen. Antisense oligonucleotide was administered to the monkeys at 5 mg/kg three times per week for week 1; 5 mg/kg twice per week for week 2 and 3; 10 mg/kg three times per week for week 4; and 10 mg/kg twice per week for weeks 5 to 12. Body weights were measured weekly. Blood samples were collected 14 days and 5 days before the start of treatment and subsequently once per week for Factor 11 protein activity analysis in plasma, fibrinogen measurement, PT and aPTT measurements, bleeding times, and measurement of various hematologic factors. On day 85, the monkeys were euthanized by exsanguination while under deep anesthesia, and organs harvested for further analysis.
To evaluate the impact of ISIS oligonucleotides on kidney function, urine samples were collected.

[2] = Liver function, ALT, AST, bilirubin in cynomolgus monkeys (Example 45); assay type: in vivo; details: plasma
Description: as §1
The ISIS oligonucleotide, ISIS 416850, given with the chronic dose regimen is distinguished from the other oligonucleotides with an asterisk (*).

[3] = Tolerability in Sprague-Dawley rats: liver function (Example 35); details: plasma, 50 mg/kg s.c. twice per week for 6 weeks
platelet aggregation = test: Platelet aggregation assay, ADP and/or collagen (Example 45); assay type: in vivo, cynomolgus monkeys
Description: as §1
Platelet aggregation was initiated by adding 1 mmol/L ADP and/or 3 μg collagen (depending on the collection day, as outlined in Table 121) to plasma samples, and was allowed to proceed for 10 minutes. Aggregation was characterized by recording the change in the electrical resistance or impedance and the change in the initial slope of aggregation after platelet shape change. The aggregation test was performed twice per sample on each collection day and the average value was taken. The ISIS oligonucleotide, ISIS 416850, given with the chronic dose regimen is distinguished from the other oligonucleotides with an asterisk (*).

[4] = Tolerability in Sprague-Dawley rats: liver function (Example 44); assay type: in vivo; design: Albumin: unit not given here; details: 50 mg/kg s.c. twice per week for 6 weeks, plasma
[5] = Tolerability in CD1 mice: hematology assays (Example 43); assay type: in vivo; details: 50 mg/kg s.c. twice per week for 6 weeks, blood
[6] = Tolerability in Sprague-Dawley rats: kidney function (Example 44); assay type: in vivo; details: 50 mg/kg s.c. twice per week for 6 weeks; for BUN / Creatinine: plasma
[7] = Tolerability in CD1 mice: body weight and organ weight (Example 43); assay type: in vivo; details: 50 mg/kg s.c. twice per week for 6 weeks, end of study
[8] = day 22, escalating dose regimen
[9] = day 43, escalating dose regimen
[10] = day 64, escalating dose regimen
[11] = day 85, escalating dose regimen
[12] = day −14, escalating dose regimen
[13] = day 15 (with ADP), escalating dose regimen
[14] = day 36 (with ADP), escalating dose regimen
[15] = day 43 (with collagen), escalating dose regimen
[16] = day 57 (with ADP), escalating dose regimen
[17] = day 64 (with collagen), escalating dose regimen
[18] = day 78 (with ADP), escalating dose regimen
[19] = day 85 (with ADP), escalating dose regimen
[20] = day 85 (with collagen), escalating dose regimen
[21] = day −5 (with collagen), escalating dose regimen
[22] = day 22, chronic dose regimen (*)
[23] = day 43, chronic dose regimen (*)
[24] = day −14, chronic dose regimen (*)

With “ISIS 416838: MOE gapmer, nucleobases 1018 to 1042 of SEQ ID NO: 1 (Table 6) (antisense GCAACCGGGATGATGAGTGC; MOE gapmer, wing and gap sizes not given here)” the “urine protein to creatinine ratio” value ([1]; Day 80) was 0.13, the “urine protein to creatinine ratio” value ([1]; Day 84) was 0.13 and the ALT [2, 8] was 36 IU/L. The AST [2, 8] was 39 IU/L, the Bilirubin [2, 8] was 0.17 mg/dL and the ALT [2, 9] was 35 IU/L. For the same substance, the AST [2, 9] was 32 IU/L, the Bilirubin [2, 9] was 0.17 mg/dL and the ALT [2, 10] was 40 IU/L. It also gave an AST [2, 10] of 33 IU/L, a Bilirubin [2, 10] of 0.15 mg/dL and an ALT [2, 11] of 41 IU/L. It also gave an AST [2, 11] of 30 IU/L, a Bilirubin [2, 11] of 0.13 mg/dL and an ALT [2, 12] of 76 IU/L. For the same substance, the AST [2, 12] was 139 IU/L, the Bilirubin [2, 12] was 0.26 mg/dL and the ALT [3] was 5 IU/L. It also gave an AST [3] of 2 IU/L, an Albumin [3] of 2 and a Bilirubin [3] of 4 mg/dL. The platelet aggregation (platelet aggregation; [13]) was 15 Ohms, the platelet aggregation (platelet aggregation; [14]) was 8 Ohms and the platelet aggregation (platelet aggregation; [15]) was 16 Ohms. The platelet aggregation (platelet aggregation; [16]) was 7 Ohms, the platelet aggregation (platelet aggregation; [17]) was 13 Ohms and the platelet aggregation (platelet aggregation; [18]) was 11 Ohms. For the same substance, the platelet aggregation (platelet aggregation; [19]) was 15 Ohms, the platelet aggregation (platelet aggregation; [20]) was 24 Ohms and the platelet aggregation (platelet aggregation; [21]) was 15 Ohms.
With “ISIS 416850: MOE gapmer, nucleobases 1275 to 1318 of SEQ ID NO: 1 (Table 8) (antisense TGCACAGTTTCTGGCAGGCC; MOE gapmer, wing and gap sizes not given here)” the “urine protein to creatinine ratio” value ([1]; Day 80) was 0.09, the “urine protein to creatinine ratio” value ([1]; Day 84) was 0.12 and the ALT [2, 22] was 42 IU/L. The AST [2, 22] was 39 IU/L, the Bilirubin [2, 22] was 0.19 mg/dL and the ALT [2, 8] was 41 IU/L. It also gave an AST [2, 8] of 45 IU/L, a Bilirubin [2, 8] of 0.13 mg/dL and an ALT [2, 23] of 41 IU/L. The AST [2, 23] was 40 IU/L, the Bilirubin [2, 23] was 0.18 mg/dL and the ALT [2, 9] was 43 IU/L. For the same substance, the AST [2, 9] was 50 IU/L, the Bilirubin [2, 9] was 0.13 mg/dL and the ALT [2, 10] was 60 IU/L. The AST [2, 10] was 56 IU/L, the Bilirubin [2, 10] was 0.14 mg/dL and the ALT [2, 11] was 75 IU/L. The AST [2, 11] was 82. IU/L, the Bilirubin [2, 11] was 0.14 mg/dL and the ALT [2, 24] was 80 IU/L. For the same substance, the AST [2, 24] was 100 IU/L, the Bilirubin [2, 24] was 0.28 mg/dL and the ALT [2, 12] was 54 IU/L. It also gave an AST [2, 12] of 81 IU/L, a Bilirubin [2, 12] of 0.21 mg/dL and an ALT [3] of 80 IU/L. For the same substance, the AST [3] was 5 IU/L, the Albumin [3] was 4 and the Bilirubin [3] was 1 mg/dL. The platelet aggregation (platelet aggregation; day 15 (with ADP), chronic dose regimen (*)) was 14 Ohms, the platelet aggregation (platelet aggregation; [13]) was 12 Ohms and the platelet aggregation (platelet aggregation; day 36 (with ADP), chronic dose regimen (*)) was 11.6 Ohms. It also gave a platelet aggregation (platelet aggregation; [14]) of 16 Ohms, a platelet aggregation (platelet aggregation; day 43 (with collagen), chronic dose regimen (*)) of 21 Ohms and a platelet aggregation (platelet aggregation; [15]) of 16 Ohms. It also gave a platelet aggregation (platelet aggregation; [16]) of 18 Ohms, a platelet aggregation (platelet aggregation; [17]) of 17 Ohms and a platelet aggregation (platelet aggregation; [18]) of 9 Ohms. For the same substance, the platelet aggregation (platelet aggregation; [19]) was 22 Ohms, the platelet aggregation (platelet aggregation; [20]) was 26 Ohms and the platelet aggregation (platelet aggregation; day −5 (with collagen), chronic dose regimen (*)) was 21 Ohms. It also gave a platelet aggregation (platelet aggregation; [21]) of 23 Ohms.
Work on “ISIS 449707: 3-8-3, 4-8-4, 2-10-2, 3-10-3 or 4-10-4 MOE microwalk gapmer (Table 46) (antisense e[5mC]*eA*e[5mC]*eA*dG*dT*dT*dT*d[5mC]*dT*dG*dG*e[5mC]*eA*eG*eG)” yielded an ALT [4] of 61 IU/L, an AST [4] of 199 IU/L and an Albumin [4] of 3.1. The Bilirubin [4] was 0.2 mg/dL, the Platelets [5] was 1386 nL⁻¹ and the RBC [5] was 8.4 pL⁻¹. The WBC [5] was 6 nL⁻¹, the hematocrit [5] was 45% and the hemoglobin [5] was 12.4 g/dL. It also gave a lymphocytes [5] of 85%, a monocytes [5] of 3% and a neutrophils [5] of 11%. It also gave a BUN [6] of 24 mg/dL, a Creatinine [6] of 0.4 mg/dL and a Urine protein/creatinine ratio [6] of 3.2. The “Change in Kidney weight” value [7] was −5%, the “Change in Liver weight” value [7] was “+11%” and the “Change in Spleen weight” value [7] was “+63%”.
For “ISIS 449708: 3-8-3, 4-8-4, 2-10-2, 3-10-3 or 4-10-4 MOE microwalk gapmer (Table 46) (antisense eA*e[5mC]*eA*dG*dT*dT*dT*d[5mC]*dT*dG*dG*e[5mC]*eA*eG)”, the ALT [4] was 25 IU/L, the AST [4] was 90 IU/L and the Albumin [4] was 3.2. The Bilirubin [4] was 0.1 mg/dL, the Platelets [5] was 1395 nL⁻¹ and the RBC [5] was 9.2 pL⁻¹. It also gave a WBC [5] of 7 nL⁻¹, a hematocrit [5] of 48% and a hemoglobin [5] of 13.2 g/dL. It also gave a lymphocytes [5] of 77%, a monocytes [5] of 5% and a neutrophils [5] of 17%. The BUN [6] was 24 mg/dL, the Creatinine [6] was 0.4 mg/dL and the Urine protein/creatinine ratio [6] was 5.7. For the same substance, the “Change in Kidney weight” value [7] was 0%, the “Change in Liver weight” value [7] was “+17%” and the “Change in Spleen weight” value [7] was “+66%”.
“ISIS 449709: 3-8-3, 4-8-4, 2-10-2, 3-10-3 or 4-10-4 MOE microwalk gapmer (Table 46) (antisense eG*e[5mC]*eA*e[5mC]*dA*dG*dT*dT*dT*d[5mC]*dT*dG*dG*d[5mC]*eA*eG*eG*e[5mC])” gave an ALT [4] of 63 IU/L, an AST [4] of 126 IU/L and an Albumin [4] of 3.1. For the same substance, the Bilirubin [4] was 0.2 mg/dL, the Platelets [5] was 1447 nL⁻¹ and the RBC [5] was 9.2 pL⁻¹. For the same substance, the WBC [5] was 5 nL⁻¹, the hematocrit [5] was 49% and the hemoglobin [5] was 13.2 g/dL. It also gave a lymphocytes [5] of 76%, a monocytes [5] of 4% and a neutrophils [5] of 19%. For the same substance, the BUN [6] was 24 mg/dL, the Creatinine [6] was 0.4 mg/dL and the Urine protein/creatinine ratio [6] was 3.4. For the same substance, the “Change in Kidney weight” value [7] was −14%, the “Change in Liver weight” value [7] was “+15%” and the “Change in Spleen weight” value [7] was “+62%”.
With “ISIS 449710: 3-8-3, 4-8-4, 2-10-2, 3-10-3 or 4-10-4 MOE microwalk gapmer (Table 46) (antisense e[5mC]*eA*e[5mC]*dA*dG*dT*dT*dT*d[5mC]*dT*dG*dG*d[5mC]*eA*eG*eG)” the ALT [4] was 36 IU/L, the AST [4] was 211 IU/L and the Albumin [4] was 2.9. For the same substance, the Bilirubin [4] was 0.1 mg/dL, the Platelets [5] was 1245 nL⁻¹ and the RBC [5] was 9.1 pL⁻¹. For the same substance, the WBC [5] was 7 nL⁻¹, the hematocrit [5] was 48% and the hemoglobin [5] was 13.5 g/dL. For the same substance, the lymphocytes [5] was 81%, the monocytes [5] was 3% and the neutrophils [5] was 15%. The BUN [6] was 29 mg/dL, the Creatinine [6] was 0.3 mg/dL and the Urine protein/creatinine ratio [6] was 5.9. The “Change in Kidney weight” value [7] was −7%, the “Change in Liver weight” value [7] was “+6%” and the “Change in Spleen weight” value [7] was “+43%”.
“ISIS 449711: 3-8-3, 4-8-4, 2-10-2, 3-10-3 or 4-10-4 MOE microwalk gapmer (Table 46) (antisense eA*e[5mC]*dA*dG*dT*dT*dT*d[5mC]*dT*dG*dG*d[5mC]*eA*eG)” gave an ALT [4] of 32 IU/L, an AST [4] of 163 IU/L and an Albumin [4] of 2.9. The Bilirubin [4] was 0.1 mg/dL, the Platelets [5] was 1225 nL⁻¹ and the RBC [5] was 9.0 pL⁻¹. For the same substance, the WBC [5] was 6 nL⁻¹, the hematocrit [5] was 48% and the hemoglobin [5] was 13.3 g/dL. For the same substance, the lymphocytes [5] was 79%, the monocytes [5] was 6% and the neutrophils [5] was 15%. It also gave a BUN [6] of 28 mg/dL, a Creatinine [6] of 0.4 mg/dL and a Urine protein/creatinine ratio [6] of 7.3. The “Change in Kidney weight” value [7] was −12%, the “Change in Liver weight” value [7] was “+18%” and the “Change in Spleen weight” value [7] was “+63%”.
